Laboratory results as given in patent publication US20080200454A1, “CARBON-LINKED TETRAHYDRO-PYRAZOLO-PYRIDINE MODULATORS OF CATHEPSIN S” (priority 2007, published 2008).

biological target: Recombinant human cathepsin S (CatS) (Homo sapiens, UniProt P25774); experiment: Recombinant human cathepsin S (CatS) inhibition assay, fluorogenic substrate Z-Valine-Valine-Arginine-AMC; details: not given;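 also: Baculovirus-expressed CatS in pH 5.0 sodium acetate buffer with DTT and NaCl, fluorescence read each minute over 20 min, inhibition derived from rate slope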
Sequence (P25774 115-331): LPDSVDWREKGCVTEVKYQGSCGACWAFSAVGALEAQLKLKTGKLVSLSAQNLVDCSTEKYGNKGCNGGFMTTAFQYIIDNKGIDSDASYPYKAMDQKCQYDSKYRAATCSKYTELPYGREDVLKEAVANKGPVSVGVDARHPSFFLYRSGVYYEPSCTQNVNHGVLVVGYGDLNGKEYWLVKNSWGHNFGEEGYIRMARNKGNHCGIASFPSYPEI

Row | SMILES | IC50
1 | NC(=O)C(=O)N1CCc2c(c(-c3ccc(Cl)c(C#Cc4ccc(CNCc5ccc(Cl)cc5)cc4)c3)nn2C[C@@H](O)CN2CCSCC2)C1 [Example 249, (S)-2-[3-(4-Chloro-3-{4-[(4-chloro-benzylamino)-methyl]-phenylethynyl}-phenyl)-1-(2-hydroxy-3-thiomorpholin-4-yl-propyl)-1,4,6,7-tetrahydro-pyrazolo[4,3-c]pyridin-5-yl]-2-oxo-acetamide] | 50 nM
2 | O=C(N1CCOCC1)N1CCc2c(c(-c3ccc(Cl)c(C#Cc4ccc(CNCc5ccc(Cl)cc5)cc4)c3)nn2CCCN2CCOCC2)C1 [Example 497, 1-[4-({2-Chloro-5-[5-(morpholin-4-ylcarbonyl)-1-(3-morpholin-4-ylpropyl)-4,5,6,7-tetrahydro-1H-pyrazolo[4,3-c]pyridin-3-yl]phenyl}ethynyl)phenyl]-N-[(4-chlorophenyl)methyl]methanamine] | 1630 nM
3 | CC(C)(C)OC(=O)N1CCC(C2CCN(C[C@H](O)Cn3nc(-c4ccc(Cl)c(CCc5ccc(Cl)cc5)c4)c4c3CCN(C(N)=O)C4)CC2)CC1 [Example 242, 1,1-Dimethylethyl 1′-{(2S)-3-[5-(aminocarbonyl)-3-{4-chloro-3-[2-(4-chlorophenyl)ethyl]phenyl}-4,5,6,7-tetrahydro-1H-pyrazolo[4,3-c]pyridin-1-yl]-2-hydroxypropyl}-4,4′-bipiperidine-1-carboxylate] | 30 nM
4 | CN(C)CCCc1cc(-c2nn(CCCN3CCC(N4CCCC4=O)CC3)c3c2CN(S(C)(=O)=O)CC3)ccc1Cl [Example 314, 1-(1-{3-[3-{4-Chloro-3-[3-(dimethylamino)propyl]phenyl}-5-(methylsulfonyl)-4,5,6,7-tetrahydro-1H-pyrazolo[4,3-c]pyridin-1-yl]propyl}piperidin-4-yl)pyrrolidin-2-one] | 3660 nM

same assay, conditions: CatS IC50

Row | SMILES | IC50
5 | CS(=O)(=O)N1CCc2c(c(-c3ccc(Cl)c(C#Cc4ccc(CN5CCCCC5)cc4)c3)nn2CCCN2CCOCC2)C1 [Example 79, 3-[4-Chloro-3-(4-piperidin-1-ylmethyl-phenylethynyl)-phenyl]-5-methanesulfonyl-1-(3-morpholin-4-yl-propyl)-4,5,6,7-tetrahydro-1H-pyrazolo[4,3-c]pyridine] | 1500 nM
6 | CC(C)(C)C1CCN(CCCn2nc(-c3ccc(Cl)c(C#Cc4ccc(CNCc5ccc(Cl)cc5)cc4)c3)c3c2CCN(S(C)(=O)=O)C3)CC1 [Example 372, 1-[4-({2-Chloro-5-[1-{3-[4-(1,1-dimethylethyl)piperidin-1-yl]propyl}-5-(methylsulfonyl)-4,5,6,7-tetrahydro-1H-pyrazolo[4,3-c]pyridin-3-yl]phenyl}ethynyl)phenyl]-N-[(4-chlorophenyl)methyl]methanamine] | 60 nM
7 | NC(=O)N1CCc2c(c(-c3ccc(Cl)c(C#Cc4ccc5c(c4)CN(Cc4ccc(Cl)cc4)CC5)c3)nn2CCCN2CCOCC2)C1 [Example 465, 3-[4-Chloro-3-({2-[(4-chlorophenyl)methyl]-1,2,3,4-tetrahydroisoquinolin-7-yl}ethynyl)phenyl]-1-(3-morpholin-4-ylpropyl)-1,4,6,7-tetrahydro-5H-pyrazolo[4,3-c]pyridine-5-carboxamide] | 150 nM

same assay, conditions: CatS IC50, Table 2; average of results obtained

Row | SMILES | IC50
8 | O=C(CF)N1CCc2c(c(-c3ccc(Cl)c(C#Cc4ccc(Cl)cc4)c3)nn2CCCN2CCOCC2)C1 [Example 140, 1-[3-[4-Chloro-3-(4-chloro-phenylethynyl)-phenyl]-1-(3-morpholin-4-yl-propyl)-1,4,6,7-tetrahydro-pyrazolo[4,3-c]pyridin-5-yl]-2-fluoro-ethanone] | 250 nM
9 | CS(=O)(=O)N1CCc2c(c(-c3ccc(Cl)c(C#Cc4ccccc4)c3)nn2CCCN2CCOCC2)C1 [Example 39, 3-(4-Chloro-3-phenylethynyl-phenyl)-5-methanesulfonyl-1-(3-morpholin-4-yl-propyl)-4,5,6,7-tetrahydro-1H-pyrazolo[4,3-c]pyridine] | 610 nM
